Data set [1] concerns the target T1, Serine/threonine-protein kinase PLK1 (Homo sapiens, UniProt P53350). Nature of the data set: Displacement of 5-carboxyfluorescein-labeled PBD-binding peptide from PLk1 PBD (unknown origin) expressed in bacterial expression system incubated for 10 mins by fluorescence polarization assay. On the technique in general: Polarisation of emitted light reports the rotation of a fluorescent probe.

Data set [2] in a line: Mean residence time in ICR mouse at 5 mg/kg, iv measured upto 24 hrs by LC/MS/MS analysis. In kind it is ADME, organism-based. The settings on record: in vivo.
Data set [3] concerns HeLa. Nature of the data set: Induction of cell cycle arrest in human Hela cells assessed as number of cells at S phase at 200 uM after 24 hrs by flow cytometry analysis (reference value: 7.86%). In kind it is functional. (In general: In flow cytometry, cells or beads pass a laser one at a time.)
Data set [4] can be described thus: Ratio of drug uptake in BALB/c nu/nu mouse xenografted with Hela cells tumor to muscle using Cy5-conjugated compound at 5 mg/kg, iv measured after 30 hrs by fluorescence microscopic analysis. In kind it is ADME, organism-based. The settings on record: in vivo.
Data set [5] concerns the target T1, Serine/threonine-protein kinase PLK1. The data set is described as follows: Inhibition PLK1 localization in mitotic kinetochore in human Hela cells at 200 uM after 18 hrs by immunofluorescence analysis relative to control. In kind it is cell-based.
Data set [6] is described as follows: Ratio of drug uptake in BALB/c nu/nu mouse xenografted with Hela cells tumor to muscle using Cy5-conjugated compound at 5 mg/kg, iv measured after 6 hrs by fluorescence microscopic analysis. In kind it is ADME, organism-based. The settings on record: in vivo.
For data set [7], the system named is HeLa. Nature of the data set: Induction of apoptosis in human Hela cells assessed as dead cells at 200 uM after 24 hrs by fluorescence microscope analysis relative to control. In kind it is functional.
A short description of data set [8]: Half life in ICR mouse at 5 mg/kg, iv measured upto 24 hrs by LC/MS/MS analysis. In kind it is ADME, organism-based. The conditions noted are these: in vivo.
Data set [9] addresses T1, Serine/threonine-protein kinase PLK1. The data set is described as follows: Inhibition of PLK1 PBD interaction with p-Cdc25c in human Hela cells assessed as decrease in phosphorylated Cdc25c co-preciptated with GST-PLK1 PBD by pull down assay. In kind it is cell-based.
Data set [10] deals with Serine/threonine-protein kinase PLK3 (Homo sapiens, UniProt Q9H4B4). The data set is described as follows: Displacement of 5-carboxyfluorescein-labeled PBD-binding peptide from PLk3 PBD (unknown origin) expressed in bacterial expression system incubated for 10 mins by fluorescence polarization assay.
Chain of Serine/threonine-protein kinase PLK3 (Q9H4B4 whole entry): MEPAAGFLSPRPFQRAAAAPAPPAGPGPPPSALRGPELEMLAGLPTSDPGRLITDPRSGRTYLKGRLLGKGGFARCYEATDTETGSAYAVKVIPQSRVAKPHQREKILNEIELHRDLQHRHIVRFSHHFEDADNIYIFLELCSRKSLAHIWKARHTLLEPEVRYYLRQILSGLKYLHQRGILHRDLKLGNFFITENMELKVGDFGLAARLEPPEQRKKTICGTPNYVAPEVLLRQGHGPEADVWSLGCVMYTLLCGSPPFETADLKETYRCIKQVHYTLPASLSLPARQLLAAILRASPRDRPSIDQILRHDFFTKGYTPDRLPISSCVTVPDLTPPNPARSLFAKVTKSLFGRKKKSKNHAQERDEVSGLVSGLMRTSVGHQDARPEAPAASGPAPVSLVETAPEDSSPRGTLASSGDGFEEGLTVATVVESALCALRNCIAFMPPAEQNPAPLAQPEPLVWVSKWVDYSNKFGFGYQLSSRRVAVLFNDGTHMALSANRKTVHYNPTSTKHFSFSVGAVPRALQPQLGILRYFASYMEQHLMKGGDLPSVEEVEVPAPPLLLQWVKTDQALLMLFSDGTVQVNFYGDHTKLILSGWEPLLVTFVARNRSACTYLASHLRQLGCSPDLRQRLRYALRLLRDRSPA
The nature of data set [11]: Drug uptake in human Hela cells using Cy5-conjugated compound at 200 uM after 18 hrs by fluorescence microscopic analysis. In kind it is ADME, cell-based.
Data set [12] concerns HeLa. The data set is described as follows: Induction of cell cycle arrest in human Hela cells assessed as number of cells at G2/M phase at 200 uM after 24 hrs by flow cytometry analysis (reference value: 18%). In kind it is functional.
For the next data set, the species on record is Homo sapiens. The data set is described as follows: Selectivity ratio for binding affinity for PLK2 PBD (unknown origin) to binding affinity for PLK1 PBD (unknown origin).
The nature of data set [13]: AUClast in ICR mouse at 5 mg/kg, iv measured upto 24 hrs by LC/MS/MS analysis. Further details: route intravenous, dose 5 mg/kg, time <=24. In kind it is ADME, organism-based. The conditions noted are these: in vivo.
Data set [14] is described as follows: Toxicity in Balb/c nu nu mouse xenografted with human Hela cells assessed as changed in body weight at 5 mg/kg, iv for 29 days. In kind it is organism-based. The settings on record: in vivo, 696 h, time 29 day. (In general: A xenograft is tissue or cells of one species grown in another, often human tumour cells in immunodeficient mice.)
In data set [15] the test system is HeLa. The data set is described as follows: Induction of cell cycle arrest in human Hela cells assessed as number of cells at G0/G1 phase at 200 uM after 24 hrs by flow cytometry analysis (reference value: 74.14%). In kind it is functional.
Data set [16] deals with HeLa. Nature of the data set: Induction of apoptosis in human Hela cells assessed as dead cells at 200 uM after 48 hrs by fluorescence microscope analysis relative to control. In kind it is functional.
In data set [17] the test system is HeLa. The data set is described as follows: Antitumor activity against human Hela cells xenografted in Balb/c nu nu mouse assessed as decrease in tumor size at 5 mg/kg, iv for 29 days. In kind it is functional, organism-based. The conditions noted are these: time 29.0 day.
Data set [18] is described as follows: Drug uptake in tumor of BALB/c nu/nu mouse xenografted with Hela cells using Cy5-conjugated compound at 5 mg/kg, iv measured after 48 hrs by fluorescence microscopic analysis. In kind it is ADME, organism-based, Neoplasm. The conditions noted are these: in vivo.
Data set [19] is described as follows: AUC(infinity) in ICR mouse at 5 mg/kg, iv measured upto 24 hrs by LC/MS/MS analysis. In kind it is ADME, organism-based. Further details: route intravenous, dose 5 mg/kg, time <=24. The settings on record: in vivo.
The nature of data set [20]: Clearance in ICR mouse at 5 mg/kg, iv measured upto 24 hrs by LC/MS/MS analysis. In kind it is ADME, organism-based. The settings on record: in vivo.
Data set [21] in a line: Volume of distribution at steady state in ICR mouse at 5 mg/kg, iv measured upto 24 hrs by LC/MS/MS analysis. In kind it is ADME, organism-based. The conditions noted are these: in vivo.
Data set [22] can be described thus: Ratio of drug uptake in BALB/c nu/nu mouse xenografted with Hela cells tumor to muscle using Cy5-conjugated compound at 5 mg/kg, iv measured after 48 hrs by fluorescence microscopic analysis. In kind it is ADME, organism-based. The conditions noted are these: in vivo.
Data set [23] in a line: Ratio of drug uptake in BALB/c nu/nu mouse xenografted with Hela cells tumor to muscle using Cy5-conjugated compound at 5 mg/kg, iv measured after 24 hrs by fluorescence microscopic analysis. In kind it is ADME, organism-based. The settings on record: in vivo.
Data set [24] in a line: Drug uptake in muscle of BALB/c nu/nu mouse xenografted with Hela cells using Cy5-conjugated compound at 5 mg/kg, iv measured after 48 hrs by fluorescence microscopic analysis. In kind it is ADME, organism-based, Muscle tissue. The conditions noted are these: in vivo.
Data set [25] concerns HeLa. The data set is described as follows: Induction of cell cycle arrest in human Hela cells assessed as number of cells at S phase at 100 nM after 24 hrs by flow cytometry analysis (reference value: 7.86%). In kind it is functional.
The subject of data set [26] is HeLa. The data set is described as follows: Induction of apoptosis in human Hela cells assessed as dead cells at 100 nM after 24 hrs by fluorescence microscope analysis relative to control. In kind it is functional.
The subject of data set [27] is HeLa. Nature of the data set: Induction of apoptosis in human Hela cells assessed as dead cells at 100 nM after 48 hrs by fluorescence microscope analysis relative to control. In kind it is functional.
Data set [28] deals with HeLa. The data set is described as follows: Induction of cell cycle arrest in human Hela cells assessed as number of cells at G2/M phase at 100 nM after 24 hrs by flow cytometry analysis (reference value: 18%). In kind it is functional.
The subject of data set [29] is HeLa. The data set is described as follows: Induction of cell cycle arrest in human Hela cells assessed as number of cells at G0/G1 phase at 100 nM after 24 hrs by flow cytometry analysis (reference value: 74.14%). In kind it is functional.

One may read the inhibition as the share of the control response that was lost under treatment. One may read the MRT as a mean duration of stay, worked out from the concentration-time curve. By AUC is commonly meant concentration integrated over time. A higher AUC goes with high exposure. As a reminder, the Vdss is a proportionality between amount in the body and measured concentration, not a real space. Lower therefore signals little distribution into tissue. A word on the IC50: it is the concentration at which inhibition is half-maximal. Read a high IC50 as lower potency.

Structures are written as SMILES. Calls of active or inactive are those of the source. No cut-off for these calls is given here. Non-standard residues stand in square brackets, D forms with d. Residues, ends and D or L forms follow the SMILES beside them. pT = C[C@@H](OP(=O)(O)O)[C@H](N)C(=O)O

T1 sequence (P53350 whole entry): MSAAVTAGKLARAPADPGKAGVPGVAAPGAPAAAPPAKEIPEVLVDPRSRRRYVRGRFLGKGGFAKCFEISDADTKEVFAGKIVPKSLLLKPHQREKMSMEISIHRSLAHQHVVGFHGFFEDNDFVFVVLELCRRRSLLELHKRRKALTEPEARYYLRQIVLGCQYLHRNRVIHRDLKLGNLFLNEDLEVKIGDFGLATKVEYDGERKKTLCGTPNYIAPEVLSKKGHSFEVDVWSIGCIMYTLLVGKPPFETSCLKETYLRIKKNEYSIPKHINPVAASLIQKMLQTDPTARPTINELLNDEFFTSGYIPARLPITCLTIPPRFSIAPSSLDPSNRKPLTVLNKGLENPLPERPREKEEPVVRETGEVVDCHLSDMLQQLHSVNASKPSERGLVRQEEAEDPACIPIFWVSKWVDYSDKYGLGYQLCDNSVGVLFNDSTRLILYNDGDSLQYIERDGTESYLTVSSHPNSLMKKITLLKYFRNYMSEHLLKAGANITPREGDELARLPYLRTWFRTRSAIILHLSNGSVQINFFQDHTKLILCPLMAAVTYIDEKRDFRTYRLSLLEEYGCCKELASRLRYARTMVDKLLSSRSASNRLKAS

On to `CCCN1C(=O)C(=Cc2cn(-c3ccccc3)nc2-c2ccccc2)C(=O)N(CCC)C1=O`, for which, in data set [1], the inhibition entry was “inactive”.

For `CS(=O)(=O)c1ccc(C(=O)NCCn2cc(C=C3C(=O)NC(=O)NC3=O)c(-c3ccccc3)n2)cc1`, the inhibition result in [1] was “inactive”.

Turning to `O=C1NC(=O)C(=Cc2cn(Cc3cccc(OC(F)(F)F)c3)nc2-c2ccccc2)C(=O)N1`, in [1], the inhibition entry was “inactive”.

As for `O=C1NC(=O)C(=Cc2cn(CCNC(=O)C3CCCCC3)nc2-c2ccccc2)C(=O)N1`, in data set [1], the inhibition result is “inactive”.

Turning to `CNc1ccc(C(=O)NCCn2cc(C=C3C(=O)NC(=O)NC3=O)c(-c3ccccc3)n2)cc1`, the mean residence time (MRT) in data set [2] is 0.72 h. The Activity with HeLa [3] is listed as 18.41%; in the data set on HeLa [7], 24.6%; in the data set with HeLa [12], 27.12%; in data set [14], “Non-Toxic”; in the data set on HeLa [15] it was 54.47%; in the data set with HeLa [16] it was 71.1%. In addition, the Ratio in data set [4] came out at 4.11; in data set [6], 2.1; in the data set filed under Homo sapiens, 2; in data set [22], 4.2; in data set [23], 3.9. Further, in data set [5], the inhibition stood at 61%. Also, in data set [8], the t1/2 was 7.73 h. Also, in [9], the inhibition entry is “Active”. Also, the “inhibition (INH)” value in data set [10] was “Not Active”. In addition, the Drug uptake result in data set [11], in data set [18] and in [24] was “Active” in each case. Moreover, in [13], the AUClast was 11504.31 ng·h/mL. The result with HeLa [17] was Active. In data set [19], this compound came in with an exposure (AUC) of 11535.29 ng·h/mL. Besides, the CL in data set [20] is 7.17 mL/min/kg. This compound also came in with a Vdss in data set [21] of 0.31 L/kg. In data set [1], this compound gave an IC50 of 16.4 µM.

`CC[C@@H]1C(=O)N(C)c2cnc(Nc3ccc(C(=O)NC4CCN(C)CC4)cc3OC)nc2N1C1CCCC1` [BI-2536]: the Activity is recorded as 9.9% with HeLa [25]; 31.1% in the data set with HeLa [26]; 91.5% in the data set with HeLa [27]; “Non-Toxic” in data set [14]; 28.76% in the data set with HeLa [28]; 61.34% in the data set on HeLa [29]. The result in the data set with HeLa [17] was Active.

As for `O=C1NC(=O)C(=Cc2cn(Cc3ccc(OC(F)(F)F)cc3)nc2-c2ccccc2)C(=O)N1`, in data set [1], the inhibition entry is “inactive”.

Compound `O=C1NC(=O)C(=Cc2cn(Cc3ccccc3)nc2-c2ccccc2)C(=O)N1` had an IC50 in data set [1] of 52.7 µM.

Take `CC[C@H](C)[C@H](NC(=O)[C@H](C)NC(=O)[C@@H](NC(=O)[C@H](CO)NC(=O)[C@H](Cc1cnc[nH]1)NC(=O)[C@H](CC(C)C)NC(=O)[C@@H]1CCCN1C(C)=O)[C@@H](C)OP(=O)(O)O)C(=O)N[C@@H](Cc1ccc(O)cc1)C(=O)N[C@@H](C)C(N)=O` (Ac-PLHS[pT]AIYA-NH2): the IC50 in data set [1] amounted to 0.23 µM.

For `CSc1ccc(Cn2cc(C=C3C(=O)NC(=O)NC3=O)c(-c3ccccc3)n2)cc1`, the inhibition entry in data set [1] was “inactive”.

`O=C1NC(=O)C(=Cc2cn(-c3ccccc3)nc2-c2ccccc2)C(=O)N1`: the IC50 in data set [1] is 32.2 µM.

With `O=C1C(=Cc2cn(-c3ccccc3)nc2-c2ccccc2)C(=O)N(CCc2ccccc2)C(=O)N1CCc1ccccc1`, the inhibition result in [1] was “inactive”.

For `O=C1NC(=O)C(=Cc2cn(CCCCc3ccccc3)nc2-c2ccccc2)C(=O)N1`, the inhibition entry in [1] is “Active”.

Regarding `CN1C(=O)C(=Cc2cn(-c3ccccc3)nc2-c2ccccc2)C(=O)N(C)C1=O`, the inhibition result in data set [1] was “inactive”.

In [1], `O=C1NC(=O)C(=Cc2cn(CCN3CCOCC3)nc2-c2ccccc2)C(=O)N1` showed an IC50 of 71 µM.

As for `O=C1NC(=O)C(=Cc2cn(CCNC(=O)c3ccccc3)nc2-c2ccccc2)C(=O)N1`, in data set [1], the inhibition result was “inactive”.

The values are drawn from ChEMBL document CHEMBL4699619, “Development of a Polo-like Kinase-1 Polo-Box Domain Inhibitor as a Tumor Growth Suppressor in Mice Models” (J Med Chem, 2020).
